Measurements published in patent US12441704B2, “Compounds active towards nuclear receptors” (NUEVOLUTION A/S, priority 2019, dated 2025).
Where two headings read alike, the source gives them in different places.

Molecular target: T1, RORγ ligand-binding domain fused to Gal4 (Homo sapiens, UniProt P51449)
T1 construct: Gal4 (galactose-responsive transcription factor); expressed in transfected cells; host or cells: HEK293
T1 sequence (P51449 269-508 limits assumed): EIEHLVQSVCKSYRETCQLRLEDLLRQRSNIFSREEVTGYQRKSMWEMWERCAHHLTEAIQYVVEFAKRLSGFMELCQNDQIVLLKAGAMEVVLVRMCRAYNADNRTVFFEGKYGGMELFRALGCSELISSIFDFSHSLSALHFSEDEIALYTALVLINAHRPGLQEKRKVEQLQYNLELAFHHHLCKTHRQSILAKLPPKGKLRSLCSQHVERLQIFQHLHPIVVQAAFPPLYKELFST
Experiment: RORγ Reporter Assay (Gal4)
Type: cell-based
Procedure: The HEK293 cell line is co-transfected transiently with two plasmids, one with the RORγ ligand-binding domain fused to galactose-responsive transcription factor (Gal4), and the other with the luciferase reporter gene and Gal binding sites (UAS). This construction allows to determine the RORγ activity in a cellular system through the measurement of luminescence.
A suspension of RORγ reporter cells was dispensed into plates and cultured 2 h at 37° C. and 5% CO2. Media formulation consisted in DMEM/F-12 medium (Gibco) supplemented with 10% heat inactivated FBS (Sigma-Aldrich), non-essential aminoacids (Sigma-Aldrich), 2 mM Glutamax (Gibco) and 100 U/mL penicillin (Sigma-Aldrich). Dose-response curves with compounds were prepared in 100% DMSO and further diluted 100-fold in culture medium. Compound solutions were added to the plate containing cells (final DMSO concentration of 0.1%) and incubated for 24 h at 37° C. and 5% CO2. Luciferase detection reagent was added to each well, and relative light units (RLUs) were quantified from each assay well using a plate reading luminometer.
Values of average RLU±S.D. were computed for all treatment sets, followed by the calculations of percent-reduction of RORγ activity in response to respective test compound. The following formula was used: activity=100*[1−[x test compound/average vehicle] where the theoretical minimum reduction (0% reduction).

[1] = HEK293 cells co-transfected with RORγ LBD-Gal4 and luciferase reporter, 24 h incubation, absolute EC50, read-out: EC50

SMILES | EC50 [1] [nM] | EC50 (compounds of the present disclosure, value from Table 2 herein, read-out: Gal4 assay EC50) [nM]
NC(=O)CN1CCC(CNc2ncnc(N(Cc3cccc(-n4cncn4)c3)C3CC3)c2F)CC1 [Example A7-38, 2-(4-(((6-((3-(1H-1,2,4-triazol-1-yl)benzyl)(cyclopropyl)amino)-5-fluoropyrimidin-4-yl)amino)methyl)piperidin-1-yl)acetamide] | 590 | –
NC(=O)CN1CC[C@H](CNc2ncnc(N(Cc3ccc(C(F)(F)F)cc3)C3CC3)c2F)[C@@H](F)C1 (relative stereo) [Example A7-05-2, rel-2-((3R,4R)-4-(((6-(cyclopropyl(4-(trifluoromethyl)benzyl)amino)-5-fluoropyrimidin-4-yl)amino)methyl)-3-fluoropiperidin-1-yl)acetamide] | 14 | –
Cc1ccc(C)c(CN(c2ncnc(NCC3CCN(CC(N)=O)CC3)c2F)C2CC2)c1 [Example A7-47, 2-(4-(((6-(cyclopropyl(2,5-dimethylbenzyl)amino)-5-fluoropyrimidin-4-yl)amino)methyl)piperidin-1-yl)acetamide] | > 1000 | –
NC(=O)CN1CCC(CNc2ncnc(N(Cc3ccc(C(F)(F)F)cc3)C3CC3)c2F)C(C(F)(F)F)C1 (single isomer, unassigned) [Example A7-07-2, 2-(4-(((6-(cyclopropyl(4-(trifluoromethyl)benzyl)amino)-5-fluoropyrimidin-4-yl)amino)methyl)-3-(trifluoromethyl)piperidin-1-yl)acetamide] | 93 | –
NC(=O)CN1CC[C@@H](CNc2ncnc(N(Cc3ccc(C(F)F)nc3)C3CC3)c2F)[C@H](O)C1 (single isomer, unassigned) [Example A7-25-1] | 630 | –
NC(=O)CN1CCC(CNc2ncnc(N(Cc3ccc(C(F)(F)F)cc3)C3CC3)c2F)(c2ncc[nH]2)CC1 [Example A7-84, 2-(4-(((6-(Cyclopropyl(4-(trifluoromethyl)benzyl)amino)-5-fluoropyrimidin-4-yl)amino)methyl)-4-(1H-imidazol-2-yl)piperidin-1-yl)acetamide] | 301 | –
NC(=O)C(C1CCOCC1)N1CC[C@@H](CNc2ncnc(N(Cc3ccc(C(F)(F)F)cc3)C3CC3)c2F)[C@H](O)C1 (mixture of isomers) [Example A7-71, rac-2-((3R,4R)-4-(((6-(Cyclopropyl(4-(trifluoromethyl)benzyl)amino)-5-fluoropyrimidin-4-yl)amino)methyl)-3-hydroxypiperidin-1-yl)-2-(tetrahydro-2H-pyran-4-yl)acetamide] | 3.9 | –
NC(=O)CN1CC[C@@H](CNc2ncnc(N(Cc3ccc(C(F)(F)F)cc3)C3CCC3)c2F)[C@H](O)C1 (stereo in doubt) [Example A7-16, rac-2-((3R,4R)-4-(((6-(cyclobutyl(4-(trifluoromethyl)benzyl)amino)-5-fluoropyrimidin-4-yl)amino)methyl)-3-hydroxypiperidin-1-yl)acetamide] | 19 | –
CCN(Cc1ccc(C(F)(F)F)cc1F)c1ncnc(NC[C@@H]2CCN(CC(N)=O)C[C@H]2O)c1F (stereo in doubt) [Example A7-26, rac-2-((3R,4R)-4-(((6-(ethyl(2-fluoro-4-(trifluoromethyl)benzyl)amino)-5-fluoropyrimidin-4-yl)amino)methyl)-3-hydroxypiperidin-1-yl)acetamide] | 17 | –
NC(=O)CN1CC[C@@H](CNc2ncnc(N(Cc3ccc(OC(F)F)cc3F)C3CCC3)c2F)[C@H](O)C1 (single isomer, unassigned) [Example A7-15-1] | 51 | –
N#Cc1cccc(CN(c2ncnc(NCC3CCN(CC(N)=O)CC3)c2F)C2CC2)c1 [Example A7-36, 2-(4-(((6-((3-cyanobenzyl)(cyclopropyl)amino)-5-fluoropyrimidin-4-yl)amino)methyl)piperidin-1-yl)acetamide] | 860 | –
NC(=O)C(CO)N1CCC(CNc2ncnc(N(Cc3ccc(C(F)(F)F)cc3)C3CC3)c2F)CC1 (centres unmarked) [Example A7-64, 2-(4-(((6-(cyclopropyl(4-(trifluoromethyl)benzyl)amino)-5-fluoropyrimidin-4-yl)amino)methyl)piperidin-1-yl)-3-hydroxypropanamide] | 73 | –
NC(=O)CN1CC[C@H](CNc2ncnc(N(Cc3ccc(OC(F)F)cc3F)C3CCC3)c2F)[C@@H](O)C1 (stereo in doubt) [Example A7-15-2, rel-2-((3R,4R)-4-(((6-(cyclobutyl(4-(difluoromethoxy)-2-fluorobenzyl)amino)-5-fluoropyrimidin-4-yl)amino)methyl)-3-hydroxypiperidin-1-yl)acetamide] | 310 | –
CCN(Cc1ccc(C(F)(F)F)cc1F)c1ncnc(NC[C@]2(O)CCN(CC(N)=O)C[C@H]2O)c1F (single isomer, unassigned) [Example D5-03-1-2] | 9.3 | –
Cc1cc(CN(c2ncnc(NCC3CCN(CC(N)=O)CC3)c2F)C2CC2)cc(C)c1Cl [Example A7-53, 2-(4-(((6-((4-chloro-3,5-dimethylbenzyl)(cyclopropyl)amino)-5-fluoropyrimidin-4-yl)amino)methyl)piperidin-1-yl)acetamide] | > 1000 | –
NC(=O)CN1CCC(CNc2ncnc(N(Cc3ccc(C(F)(F)F)cc3)C3CC3)c2F)CC1 [Example A7-39, 2-(4-(((6-(cyclopropyl(4-(trifluoromethyl)benzyl)amino)-5-fluoropyrimidin-4-yl)amino)methyl)piperidin-1-yl)acetamide] | 37 | –
CC(F)(F)c1ccc(CN(c2ncnc(NC[C@@H]3CCN(CC(N)=O)C[C@H]3O)c2F)C2CC2)cn1 (single isomer, unassigned) [Example A7-29-1] | 35 | –

Continued by falling EC50 [1], values first:

EC50 [1] [nM] | EC50 (compounds of the present disclosure, value from Table 2 herein, read-out: Gal4 assay EC50) [nM] | SMILES
230 | – | Cn1c(=O)oc2cc(CN(c3ncnc(NCC4(F)CCN(CC(N)=O)CC4)c3F)C3CC3)ccc21 [Example A7-13]
164 | – | CCN(Cc1ccc(C(F)(F)CO)cc1)c1ncnc(NC[C@@H]2CCN(CC(N)=O)C[C@H]2O)c1F (racemic) [Example A7-79, rac-2-((3R,4R)-4-(((6-((4-(1,1-difluoro-2-hydroxyethyl)benzyl)(ethyl)amino)-5-fluoropyrimidin-4-yl)amino)methyl)-3-hydroxypiperidin-1-yl)acetamide]
81 | – | NC(=O)CN1CC[C@@H](CNc2ncnc(N(Cc3ccc(C(F)(F)F)nc3)C3CCC3)c2F)[C@H](O)C1 (racemic) [Example A7-23, rac-2-((3R,4R)-4-(((6-(cyclobutyl((6-(trifluoromethyl)pyridin-3-yl)methyl)amino)-5-fluoropyrimidin-4-yl)amino)methyl)-3-hydroxypiperidin-1-yl)acetamide]
70 | – | CC(F)(F)c1ccc(CN(c2ncnc(NC[C@H]3CCN(CC(N)=O)C[C@@H]3O)c2F)C2CC2)cn1 (relative stereo) [Example A7-29-2, rel-2-((3R,4R)-4-(((6-(cyclopropyl((6-(1,1-difluoroethyl)pyridin-3-yl)methyl)amino)-5-fluoropyrimidin-4-yl)amino)methyl)-3-hydroxypiperidin-1-yl)acetamide]
61 | – | NC(=O)CN1CC[C@@](O)(CNc2ncnc(N(Cc3ccc(C(F)(F)F)cc3)C3CC3)c2F)[C@H](O)C1 (single isomer, unassigned) [Example D5-02-1-2]
52 | – | CCN(Cc1ccc(-c2cnn(C)c2)cc1)c1ncnc(NC[C@@H]2CCN(CC(N)=O)C[C@H]2O)c1F (racemic) [Example A7-72, rac-2-((3R,4R)-4-(((6-(ethyl(4-(1-methyl-1H-pyrazol-4-yl)benzyl)amino)-5-fluoropyrimidin-4-yl)amino)methyl)-3-hydroxypiperidin-1-yl)acetamide]
49 | – | NC(=O)CN1CCC(CNc2ncnc(N(Cc3ccc(C(F)(F)F)cc3)C3CC3)c2F)C(C(F)(F)F)C1 (single isomer, unassigned) [Example A7-07-1, 2-(4-(((6-(cyclopropyl(4-(trifluoromethyl)benzyl)amino)-5-fluoropyrimidin-4-yl)amino)methyl)-3-(trifluoromethyl)piperidin-1-yl)acetamide]
40 | < 100 | NC(=O)CN1CC[C@H](CNc2ncnc(N(Cc3cnc(C(F)(F)F)nc3)C3CC3)c2F)[C@@H](O)C1 (single isomer, unassigned) [Example A7-17-1]
32 | – | CN(Cc1ccc(C(F)(F)F)cc1)c1ncnc(NC[C@H]2CCN(CC(N)=O)C[C@@H]2O)c1F (single isomer, unassigned) [Example A7-20-2]
26 | – | CN(Cc1ccc(C(F)(F)F)cc1)c1ncnc(NC[C@H]2CCN(CC(N)=O)C[C@@H]2O)c1F (racemic) [Example A7-20, rac-2-((3R,4R)-4-(((5-fluoro-6-(methyl(4-(trifluoromethyl)benzyl)amino)pyrimidin-4-yl)amino)methyl)-3-hydroxypiperidin-1-yl)acetamide]
13 | – | CCN(Cc1ccc(C(F)(F)F)cc1)c1ncnc(NC[C@H]2CCN(CC(N)=O)C[C@@H]2O)c1F (single isomer, unassigned) [Example A7-21-2]
